Structures are written as SMILES.

The assay concerns colon carcinoma cell lines. The experiment in a line: Inhibition of the proliferation of tumour cells in vitro (propidium iodide uptake). It counts as cell-based. The following applies: 72 h, 10,000 cells per well, 3 days incubation at 37° C., propidium iodide/NP40 fluorescence, % of control. From the text:
The antiproliferative action can be tested in an HCT116 proliferation assay.
The present experimental description describes the inhibition of tumour cell proliferation by active ingredients.
The cell proliferation is estimated by measurement of the uptake of propidium iodide. […] It is prevented from entering healthy cells. However, if cells have been killed by addition of the detergent NP40, cell membrane and nuclear membrane become permeable. PI attaches itself to the DNA of the cell nuclei and fluoresces in this complex. This fluorescence is measured in the fluorimeter.
commercially available colon carcinoma cell lines
10,000 cells are plated out per well, in a volume of 180 μl, in a 96-hole plate. The outer rows A1-12, 1A-H, 12A-H and H1-12 are only filled with 200 μl of medium or buffer.
The cells are incubated for 24 hours, at 37° C. and 10% CO2 gassing.
In order to test active substances, the corresponding dilutions must first be produced and assigned to the wells. The scheme of a 1:3 dilution indicated here as an example can be varied correspondingly as desired. The scheme described is designed for 4 test substances.
20 μl of medium, solvent dilution or the corresponding dilution of the positive control (IC50) are pipetted into these holes.
Substance groups (column B-G, wells 2-9): 20 μl of substance dilution are pipetted into these holes.
147 μl of medium is introduced into each of the wells of row B of the extra plate in columns 1, 2, 3, 4, and 3 μl of the test substance are added (=300 μM). 100 μl of medium are introduced into rows C-G, columns 1-4. 50 μl are then transferred into row C using a multichannel pipette, mixed 8×, and 50 μl are then transferred from this row into row D. This is continued correspondingly until row G has been reached, in which, after mixing, 50 μl of the dilution are removed and discarded. 100 μl of each desired dilution are now located in the extra plate, and it is now only necessary to transfer 20 μl directly into the test plate.
The plate is incubated at 37° C. and 10% CO2 gassing for 3 days.
The cells multiplying in this time are determined by means of propidium iodide.
20 μl of PI stock solution and 10 μl of NP40 stock solution are required per well. Since each plate has 72 wells charged with PI and with NP40, 1440 μl of the PI stock solution and 720 μl of the NP40 stock solution are required per plate. Taking into account pipetting losses, 1.8 ml of PI stock solution are thus taken and mixed with 0.9 ml of the NP40 stock solution immediately before pipetting in. 30 μl of the PI/NP40 mixture are now pipetted into each of the wells of the plate, each of which contain 200 μl of medium. The plate is subsequently placed in the incubator for 2 hours.
The plate(s) is measured in a fluorescence photometer at a wavelength Ex. 520 nm and Em of 620 nm. The background (=medium+PI) is subtracted from all values, which are subsequently averaged (double values) and expressed or calculated in % of control.
An IC50 (half-maximum action) can now be calculated using a statistics program such as, for example, RS1.
Prepare the desired stock solution at […] in DMSO. Adjust to ten times the concentration to be tested in the cell culture (see above) by dilution in culture medium.
As a reminder, the IC50 is the point on the concentration scale where inhibition reaches its midpoint. `O=C(CC(c1ccccc1)c1ccccc1)Nc1cc(Cl)c2cccnc2c1O` [Compound A1, N-(5-chloro-8-hydroxyquinolin-7-yl)-3,3-diphenylpropionamide]: half-maximal inhibition (IC50) was put at 90 nM. This lies in the double-digit nanomolar range. For `O=C(Nc1cc(Cl)c2cccnc2c1O)C(c1ccccc1)c1ccccc1` [Compound A2, N-(5-chloro-8-hydroxyquinolin-7-yl)-2,2-diphenylacetamide], half-maximal inhibition (IC50) required 2100 nM. To `O=C(Nc1cc(Cl)c2cccnc2c1O)C(Cc1ccccn1)c1ccccc1` (stereo not drawn) [Compound A3, N-(5-chloro-8-hydroxyquinolin-7-yl)-2-phenyl-3-pyridin-2-ylpropionamide] belongs 1100 nM.

Compound `O=C(Nc1cc(Cl)c2cccnc2c1O)NC(c1ccccc1)c1ccccn1` (stereo not drawn) [Compound A14, 1-(5-chloro-8-hydroxyquinolin-7-yl)-3-(phenylpyridin-2-ylmethyl)urea] displayed an IC50 of 90 nM. Regarding `O=C(Nc1ccc(C(F)(F)F)cc1)Nc1ccc2cccnc2c1O` [Compound A19, 1-(8-Hydroxyquinolin-7-yl)-3-(4-trifluoromethylphenyl)urea], the IC50 worked out at 1500 nM. Turning to `CCOc1ccccc1NC(=O)Nc1ccc2cccnc2c1O` [Compound A20, 1-(2-Ethoxyphenyl)-3-(8-hydroxyquinolin-7-yl)-urea], the IC50 turned out to be 210 nM.

(Values after patent publication US8158799B2, “Hydroxyquinoline derivatives” (Merck Patent Gesellschaft MIT Meschraenkter Haftung, priority 2005, dated 2012).)
